Results from patent US20260217673A1, “NOVEL COMPOUND AS RON INHIBITOR” (LG CHEM, LTD., priority 2022, published 2026).

What was measured:
[1] = molecular target: RON (Homo sapiens, UniProt Q04912); assay: RON inhibitory activity, TR-FRET kinase assay; assay type: biochemical; details: RON protein, ULight-labeled Poly GT substrate
Experimental: To measure the RON inhibitory activity of the example compounds, the IC50 of the compounds was measured using time-resolved fluorescence energy transfer (TR-FRET).
Specifically, the compound was prepared at a concentration of 1 mM with 100% DMSO and serially diluted 10 times through 3-fold dilution. 2 μl of the serially diluted compound was added to a 96-well plate containing 48 μl of 1× kinase reaction buffer (50 mM HEPES (pH 7.4), 0.01% Tween-20, 5 mM DTT, 0.5 mM Na3VO4, 2 mM EGTA, 10 mM MgCl2).
The RON protein was diluted with a RON storage buffer (50 mM Tris-HCl (pH 7.5), 150 mM NaCl, 0.5 mM EDTA, 0.02% Triton X-100) to a concentration of 49.3 nM, and then diluted again with 1× kinase reaction buffer to be 0.4 nM. As a substrate cocktail, a RON-specific substrate mixture (40 μM ULight-labeled Poly GT, 100 nM ATP) was prepared at a concentration twice the final reaction concentration.
(§1) After that, a 384-well plate was prepared, and 2.5 μl of the diluted example compound was added to each of the experimental group wells, and 2.5 μl of a 4% DMSO solution was dispensed into high control wells and low control wells.
(§2) Afterward, 2.5 μl of 0.4 nM RON was dispensed into the high control wells and the experimental group wells, and 2.5 μl of 1× kinase reaction buffer was added to the low control wells, and after centrifugation at 1000 RPM for 40 seconds at room temperature, the mixtures were incubated at room temperature for 20 to 30 minutes. Then, 5 μl of the substrate cocktail (2×) was dispensed into all wells, and after centrifugation at 1000 RPM for 40 seconds at room temperature, the mixtures were incubated at room temperature for 60 minutes. Afterward, 5 μl of 30 mM EDTA was added to all wells to terminate the reaction, and the mixtures were incubated again at room temperature for 5 minutes. Thereafter, 5 μl of 4× phosphotyrosine antibodies (Perkin Elmer) containing europium was added to all wells and incubated at room temperature for 60 minutes. After the incubation, the 384-well-plate was read with a Vison plate reader. At this time, the excitation wavelength was 340 nm, and the emission wavelengths were 620 nm and 665 nm. The IC50 value of each example compound was derived using the GraphPd Prism7 program.

[2] = molecular target: cMET (Homo sapiens, UniProt P08581); assay: MET (cMET) enzyme inhibitory activity, TR-FRET kinase assay; assay type: biochemical; details: cMET protein, TK peptide substrate
Experimental: In addition, to measure cMET enzyme activity inhibition, an experiment was performed by the same method as the experiment for measuring the RON enzyme activity inhibition.
Specifically, the compound was prepared at a concentration of 1 mM with 100% DMSO and serially diluted 10 times through 3-fold dilution. 2 μl of the serially diluted compound was added to a 96-well plate containing 48 μl 1× kinase reaction buffer (50 mM HEPES (pH 7.4), 0.05% BSA, 0.005% Tween-20, 1 mM DTT, 0.5 mM MnCl2, 20 mM MgCl2).
The cMET protein was diluted in a cMET storage buffer (50 mM Tris-HCl (pH 7.5), 150 mM NaCl, 0.05% Brij35, 1 mM DTT, 10% glycerol) to a concentration of 263 nM, and then diluted again with 1× kinase reaction buffer to 2 nM. As a substrate cocktail, a MET-specific substrate mixture (5 μM TK peptide, 10 mM ATP) was prepared at a concentration twice the final reaction concentration.
as §1
as §2, with “μl of 2 nM cMET” for “μl of 0.4 nM RON”, “2 nM cMET was dispensed” for “0.4 nM RON was dispensed”, “was dispensed to the high” for “was dispensed into the high”, “μl of 90 mM EDTA” for “μl of 30 mM EDTA”

RON, sequence (Q04912 25-1400, species assumed): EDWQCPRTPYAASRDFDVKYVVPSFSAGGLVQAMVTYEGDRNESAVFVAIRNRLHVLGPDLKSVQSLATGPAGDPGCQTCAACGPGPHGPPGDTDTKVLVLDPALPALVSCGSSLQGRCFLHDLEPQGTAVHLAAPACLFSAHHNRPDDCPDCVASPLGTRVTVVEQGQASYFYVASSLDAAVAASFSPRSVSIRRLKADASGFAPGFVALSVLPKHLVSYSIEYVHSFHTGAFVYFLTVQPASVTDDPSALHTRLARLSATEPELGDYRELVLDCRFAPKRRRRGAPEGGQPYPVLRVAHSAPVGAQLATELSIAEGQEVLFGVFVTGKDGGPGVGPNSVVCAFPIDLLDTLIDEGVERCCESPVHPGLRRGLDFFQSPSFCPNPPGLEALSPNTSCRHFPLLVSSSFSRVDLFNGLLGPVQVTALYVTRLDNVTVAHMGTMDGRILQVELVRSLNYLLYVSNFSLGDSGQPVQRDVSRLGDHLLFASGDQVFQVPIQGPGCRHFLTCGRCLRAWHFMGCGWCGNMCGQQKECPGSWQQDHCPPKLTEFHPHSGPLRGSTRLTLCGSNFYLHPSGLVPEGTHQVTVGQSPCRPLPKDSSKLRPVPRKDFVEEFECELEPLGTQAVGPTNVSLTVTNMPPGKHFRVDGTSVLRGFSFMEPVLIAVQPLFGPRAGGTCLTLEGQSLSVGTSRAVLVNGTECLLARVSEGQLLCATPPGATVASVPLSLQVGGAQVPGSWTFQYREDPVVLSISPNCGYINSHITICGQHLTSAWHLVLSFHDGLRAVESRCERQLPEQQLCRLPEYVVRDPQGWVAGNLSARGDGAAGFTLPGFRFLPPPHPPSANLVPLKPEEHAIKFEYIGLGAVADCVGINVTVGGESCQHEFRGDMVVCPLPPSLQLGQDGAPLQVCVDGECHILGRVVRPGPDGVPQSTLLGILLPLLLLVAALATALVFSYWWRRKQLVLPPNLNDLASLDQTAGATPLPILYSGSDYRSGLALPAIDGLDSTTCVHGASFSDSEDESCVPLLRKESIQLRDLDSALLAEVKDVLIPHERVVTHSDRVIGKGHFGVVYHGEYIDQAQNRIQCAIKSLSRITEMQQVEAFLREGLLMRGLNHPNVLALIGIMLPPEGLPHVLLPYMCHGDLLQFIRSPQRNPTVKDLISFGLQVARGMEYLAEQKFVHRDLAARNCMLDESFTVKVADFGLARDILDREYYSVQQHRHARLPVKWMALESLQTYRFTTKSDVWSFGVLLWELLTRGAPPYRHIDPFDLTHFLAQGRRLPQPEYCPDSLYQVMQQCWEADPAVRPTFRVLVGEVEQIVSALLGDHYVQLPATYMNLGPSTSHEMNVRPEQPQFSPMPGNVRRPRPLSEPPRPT
cMET, sequence (P08581 25-1390): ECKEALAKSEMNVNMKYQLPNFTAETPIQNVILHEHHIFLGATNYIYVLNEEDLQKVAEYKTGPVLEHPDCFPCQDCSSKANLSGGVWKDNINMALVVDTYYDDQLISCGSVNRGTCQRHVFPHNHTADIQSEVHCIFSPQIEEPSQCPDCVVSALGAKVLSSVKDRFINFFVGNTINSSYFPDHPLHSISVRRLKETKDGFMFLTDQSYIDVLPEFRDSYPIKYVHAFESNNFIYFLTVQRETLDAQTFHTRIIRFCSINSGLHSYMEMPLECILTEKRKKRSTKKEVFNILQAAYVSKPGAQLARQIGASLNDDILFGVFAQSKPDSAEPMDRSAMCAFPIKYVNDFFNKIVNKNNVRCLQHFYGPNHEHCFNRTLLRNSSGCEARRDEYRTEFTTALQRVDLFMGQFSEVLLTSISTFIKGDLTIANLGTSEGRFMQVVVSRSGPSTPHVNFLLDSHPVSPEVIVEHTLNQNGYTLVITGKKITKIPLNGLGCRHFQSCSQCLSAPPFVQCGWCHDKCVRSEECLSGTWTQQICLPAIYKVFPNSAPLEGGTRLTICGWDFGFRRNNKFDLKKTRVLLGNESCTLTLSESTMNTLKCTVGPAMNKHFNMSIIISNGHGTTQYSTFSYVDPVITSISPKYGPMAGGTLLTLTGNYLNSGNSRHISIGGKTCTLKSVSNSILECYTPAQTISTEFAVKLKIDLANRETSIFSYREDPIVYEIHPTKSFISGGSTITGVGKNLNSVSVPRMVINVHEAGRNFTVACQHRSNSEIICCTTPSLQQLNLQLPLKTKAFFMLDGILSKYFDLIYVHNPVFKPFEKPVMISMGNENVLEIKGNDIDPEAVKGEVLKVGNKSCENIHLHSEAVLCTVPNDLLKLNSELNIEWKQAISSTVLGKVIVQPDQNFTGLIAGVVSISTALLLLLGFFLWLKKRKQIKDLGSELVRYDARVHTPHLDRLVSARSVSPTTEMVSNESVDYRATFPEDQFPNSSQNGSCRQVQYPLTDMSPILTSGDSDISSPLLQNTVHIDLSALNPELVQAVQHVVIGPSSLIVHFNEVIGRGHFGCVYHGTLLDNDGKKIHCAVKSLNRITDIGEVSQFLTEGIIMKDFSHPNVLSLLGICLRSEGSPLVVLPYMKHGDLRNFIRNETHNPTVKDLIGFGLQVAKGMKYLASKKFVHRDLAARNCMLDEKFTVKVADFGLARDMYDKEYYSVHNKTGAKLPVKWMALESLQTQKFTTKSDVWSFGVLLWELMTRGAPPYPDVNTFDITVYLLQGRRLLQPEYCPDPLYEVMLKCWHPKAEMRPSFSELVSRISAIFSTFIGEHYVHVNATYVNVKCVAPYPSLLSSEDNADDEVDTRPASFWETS

SMILES	IC50 [1] [nM]	IC50 [2] [nM]
Nc1nccc(Oc2c(F)cc(NC(=O)c3cnn(-c4ccccc4)c3C(F)(F)F)cc2F)c1Cl [Example 1, N-(4-((2-amino-3-chloropyridin-4-yl)oxy)-3,5-difluorophenyl)-1-phenyl-5-(trifluoromethyl)-1H-pyrazole-4-carboxamide]	< 50	> 5000
Nc1nccc(Oc2c(F)cc(NC(=O)c3cnn(-c4ncccn4)c3C(F)(F)F)cc2F)c1Cl [Example 2, N-(4-((2-amino-3-chloropyridin-4-yl)oxy)-3,5-difluorophenyl)-1-(pyrimidin-2-yl)-5-(trifluoromethyl)-1H-pyrazole-4-carboxamide]	< 50	500 to 5000
Nc1nccc(Oc2c(F)cc(NC(=O)c3cnn(-c4cccnn4)c3C(F)(F)F)cc2F)c1Cl [Example 3, N-(4-((2-amino-3-chloropyridin-4-yl)oxy)-3,5-difluorophenyl)-1-(pyridazin-3-yl)-5-(trifluoromethyl)-1H-pyrazole-4-carboxamide]	< 50	500 to 5000
CCc1c(C(=O)Nc2cc(F)c(Oc3ccnc(N)c3Cl)c(F)c2)cnn1-c1ncccc1F [Example 4, N-(4-((2-amino-3-chloropyridin-4-yl)oxy)-3,5-difluorophenyl)-5-ethyl-1-(3-fluoropyridin-2-yl)-1H-pyrazole-4-carboxamide]	< 50	> 5000
Nc1nccc(Oc2cc(F)c(NC(=O)c3cnn(-c4ncccc4F)c3C(F)(F)F)cc2F)c1Cl [Example 5, N-(4-((2-amino-3-chloropyridin-4-yl)oxy)-2,5-difluorophenyl)-1-(3-fluoropyridin-2-yl)-5-(trifluoromethyl)-1H-pyrazole-4-carboxamide]	< 50	> 5000
Nc1nccc(Oc2cc(F)c(NC(=O)c3cnn(-c4ccccc4)c3C(F)(F)F)cc2F)c1Cl [Example 6, N-(4-((2-amino-3-chloropyridin-4-yl)oxy)-2,5-difluorophenyl)-1-phenyl-5-(trifluoromethyl)-1H-pyrazole-4-carboxamide]	50 to 500	> 5000
Nc1nccc(Oc2cc(F)c(NC(=O)c3cnn(-c4ncccc4F)c3C(F)(F)F)c(F)c2)c1Cl [Example 7, N-(4-((2-amino-3-chloropyridin-4-yl)oxy)-2,6-difluorophenyl)-1-(3-fluoropyridin-2-yl)-5-(trifluoromethyl)-1H-pyrazole-4-carboxamide]	50 to 500	> 5000
Nc1nccc(Oc2cc(F)c(NC(=O)c3cnn(-c4ccccc4)c3C(F)(F)F)c(F)c2)c1Cl [Example 8, N-(4-((2-amino-3-chloropyridin-4-yl)oxy)-2,6-difluorophenyl)-1-phenyl-5-(trifluoromethyl)-1H-pyrazole-4-carboxamide]	500 to 5000	> 5000
Nc1ncnc(Oc2c(F)cc(NC(=O)c3cnn(-c4ccccc4)c3C(F)(F)F)cc2F)c1Cl [Example 9, N-(4-((6-amino-5-chloropyrimidin-4-yl)oxy)-3,5-difluorophenyl)-1-phenyl-5-(trifluoromethyl)-1H-pyrazole-4-carboxamide]	< 50	> 5000
Nc1ncnc(Oc2c(F)cc(NC(=O)c3cnn(-c4ncccc4F)c3C(F)(F)F)cc2F)c1Cl [Example 10, N-(4-((6-amino-5-chloropyrimidin-4-yl)oxy)-3,5-difluorophenyl)-1-(3-fluoropyridin-2-yl)-5-(trifluoromethyl)-1H-pyrazole-4-carboxamide]	< 50	500 to 5000
Nc1ncnc(Oc2c(F)cc(NC(=O)c3cnn(-c4ncccc4Cl)c3C(F)(F)F)cc2F)c1Cl [Example 11, N-(4-((6-amino-5-chloropyrimidin-4-yl)oxy)-3,5-difluorophenyl)-1-(3-chloropyridin-2-yl)-5-(trifluoromethyl)-1H-pyrazole-4-carboxamide]	< 50	500 to 5000
Nc1ncnc(Oc2c(F)cc(NC(=O)c3cnn(-c4ncccn4)c3C(F)(F)F)cc2F)c1Cl [Example 12, N-(4-((6-amino-5-chloropyrimidin-4-yl)oxy)-3,5-difluorophenyl)-1-(pyrimidin-2-yl)-5-(trifluoromethyl)-1H-pyrazole-4-carboxamide]	< 50	500 to 5000
Nc1nccc(Oc2c(F)cc(NC(=O)c3cnn(-c4ccccc4)c3C(F)(F)F)cc2F)c1I [Example 13, N-(4-((2-amino-3-iodopyridin-4-yl)oxy)-3,5-difluorophenyl)-1-phenyl-5-(trifluoromethyl)-1H-pyrazole-4-carboxamide]	< 50	500 to 5000
Nc1nccc(Oc2c(F)cc(NC(=O)c3cnn(-c4ccccn4)c3C(F)(F)F)cc2F)c1I [Example 14, N-(4-((2-amino-3-iodopyridin-4-yl)oxy)-3,5-difluorophenyl)-1-(pyridin-2-yl)-5-(trifluoromethyl)-1H-pyrazole-4-carboxamide]	< 50	> 5000
Nc1nccc(Oc2c(F)cc(NC(=O)c3cnn(-c4ncccc4F)c3C(F)(F)F)cc2F)c1I [Example 15, N-(4-((2-amino-3-iodopyridin-4-yl)oxy)-3,5-difluorophenyl)-1-(3-fluoropyridin-2-yl)-5-(trifluoromethyl)-1H-pyrazole-4-carboxamide]	< 50	50 to 500
Nc1nccc(Oc2c(F)cc(NC(=O)c3cnn(-c4ncccc4Cl)c3C(F)(F)F)cc2F)c1I [Example 16, N-(4-((2-amino-3-iodopyridin-4-yl)oxy)-3,5-difluorophenyl)-1-(3-chloropyridin-2-yl)-5-(trifluoromethyl)-1H-pyrazole-4-carboxamide]	< 50	50 to 500
Nc1nccc(Oc2c(F)cc(NC(=O)c3cnn(-c4cccnn4)c3C(F)(F)F)cc2F)c1I [Example 17, N-(4-((2-amino-3-iodopyridin-4-yl)oxy)-3,5-difluorophenyl)-1-(pyridazin-3-yl)-5-(trifluoromethyl)-1H-pyrazole-4-carboxamide]	< 50	500 to 5000
Nc1nccc(Oc2c(F)cc(NC(=O)c3cnn(-c4ncccn4)c3C(F)(F)F)cc2F)c1I [Example 18, N-(4-((2-amino-3-iodopyridin-4-yl)oxy)-3,5-difluorophenyl)-1-(pyrimidin-2-yl)-5-(trifluoromethyl)-1H-pyrazole-4-carboxamide]	< 50	500 to 5000
Nc1nccc(Oc2c(F)cc(NC(=O)c3cnn(-c4ccccc4)c3C(F)(F)F)cc2F)c1C1CCOCC1 [Example 19, N-(4-((2-amino-3-(tetrahydro-2H-pyran-4-yl)pyridin-4-yl)oxy)-3,5-difluorophenyl)-1-phenyl-5-(trifluoromethyl)-1H-pyrazole-4-carboxamide]	< 50	500 to 5000
Nc1nccc(Oc2c(F)cc(NC(=O)c3cnn(-c4ncccc4F)c3C(F)(F)F)cc2F)c1C1CCOCC1 [Example 20, N-(4-((2-amino-3-(tetrahydro-2H-pyran-4-yl)pyridin-4-yl)oxy)-3,5-difluorophenyl)-1-(3-fluoropyridin-2-yl)-5-(trifluoromethyl)-1H-pyrazole-4-carboxamide]	< 50	50 to 500
